Tested on: mRNA expression in cardiovascular tissues
Test: Affymetrix GeneChip mRNA expression profiling of monkey tissues (iliac vein, pulmonary vein, aorta, carotid artery, heart) after two-week oral-gavage treatment
Conditions: iliac vein
[1] = group average (Vioxx without A60055)

Method: Administration of compounds. A two-week oral-gavage treatment with the Cox-2 specific inhibitor COX189 (Lumiracoxib®, Novartis) in comparison with rofecoxib (Vioxx®, Merck), and celecoxib (Celebrex®, Pharmacia/Pfizer), and with the nonselective NSAID, diclofenac (Voltaren®, Novartis) was performed. […] The test items were administered daily at doses of 100 mg/kg/day, except Vioxx® which was administered at 50 mg/kg/day.
Gene expression profiles. After a period of time (e.g., four weeks) of compound/drug administration, the treated animals are necropsied. 120 tissues are dissected and rapidly snap-frozen for genomics analysis. Organ samples are isolated for histopathological examinations and for gene expression localizations, such as by in situ hybridization.
Gene expression profiles have been generated using the Affymetrix microarray technology. (i) RNA extraction and purification: Briefly, total RNA was obtained by acid guanidinium thiocyanate-phenol-chloroform extraction (Trizol®, Invitrogen Life Technologies, San Diego, Calif.) from each frozen tissue section and the total RNA was then purified on an affinity resin (Rneasy®, Qiagen) according to the manufacturer's instructions. Total RNA was quantified by the absorbance at λ=260 nm (A260 nm) and the purity was estimated by the ratio A260 nm/A280 nm. Integrity of the RNA molecules was confirmed by non-denaturing agarose gel electrophoresis. RNA was stored at −80° C. until analysis. […] (ii) GeneChip® experiment: All GeneChip® experiments were conducted in the Genomics Factory EU following recommendations by the manufacturer of the GeneChip® system (Affymetrix, Expression Analysis Technical Manual (Affymetrix, Santa Clara, Calif., 2005). Human U133A genome arrays were used for transcript expression analysis. Double stranded cDNA was synthesized with a starting amount of approximately 5 μg full-length total RNA using the Superscript Choice System (Invitrogen Life Technologies) in the presence of a T7-(dT) 24 DNA oligonucleotide primer. Following synthesis, the cDNA was purified by phenol/chloroform/isoamyl alcohol extraction and ethanol precipitation. The purified cDNA was then transcribed in vitro using the BioArray® High Yield RNA Transcript Labeling Kit (ENZO) in the presence of biotinylated ribonucleotides form biotin labelled cRNA. The labelled cRNA was then purified on an affinity resin (Rneasy, Qiagen), quantified and fragmented. An amount of approximately 10 μg labelled cRNA was hybridized for approximately 16 hours at 45° C. to an expression probe array. The array was then washed and stained twice with streptavidin-phycoerythrin (Molecular Probes) using the GeneChip Fluidics Workstation 400 (Affymetrix). The array was then scanned twice using a confocal laser scanner (GeneArray Scanner®, Agilent) resulting in one scanned image. This resulting “.dat-file” was processed using the MASS program (Affymetrix) into a “.cel-file”. The “.cel file” was then transferred to tan Affymetrix GeneChip Laboratory Information Management System (LIMS) database, which is connected to a UNIX Sun Solaris server through a network filing system that allows for the average intensities for all probes cells (CEL file) to be downloaded into an Oracle database (NPGN). Raw data was converted to expression levels using a “target intensity” of 100. […] The data were checked for quality and loaded in the GeneSpring® software versions 5.0 (Silicon Genetics, Calif., US) for statistical analysis.
Quality control analysis of transcriptome data: The following quality measures were analysed for each sample: Scaling factor, background, percent present calls, AFFX-GAPDH 3′: AFFX-GAPDH 5′-ratio, AFFX-GAPDH 3′ variance, AFFX-Beta-actin 3′: AFFX-Beta-actin 5′-ratio.

With CS(=O)(=O)c1ccc(C2=C(c3ccccc3)C(=O)OC2)cc1 [Vioxx®, rofecoxib] the “HFE (211329_x_at) fold change vs control” value (animal A60055) was 1.8 fold, the “HFE (211332_x_at) fold change vs control” value (animal A60055) was 1.6 fold and the “HFE (211863_x_at) fold change vs control” value (animal A60055) was 1.8 fold. The “HFE (211866_x_at) fold change vs control” value (animal A60055) was 1.6 fold, the “HHL (203020_at) fold change vs control” value (animal A60055) was 2.2 fold and the “HLA-A (211528_x_at) fold change vs control” value (animal A60055) was 2.4 fold. The “HLA-A (211529_x_at) fold change vs control” value (animal A60055) was 2.1 fold, the “HLA-A (211530_x_at) fold change vs control” value (animal A60055) was 2.3 fold and the “HLA-A (215313_x_at) fold change vs control” value (animal A60055) was 1.8 fold. For the same molecule, the “HLA-B (208729_x_at) fold change vs control” value (animal A60055) was 1.8 fold, the “HLA-B (209140_x_at) fold change vs control” value (animal A60055) was 1.9 fold and the “HLA-B (211911_x_at) fold change vs control” value (animal A60055) was 1.8 fold. For the same molecule, the “HLA-C (208812_x_at) fold change vs control” value (animal A60055) was 1.8 fold, the “HLA-C (214459_x_at) fold change vs control” value (animal A60055) was 2.4 fold and the “HLA-C (216526_x_at) fold change vs control” value (animal A60055) was 2.0 fold. For the same molecule, the “HLA-DMA (217478_s_at) fold change vs control” value (animal A60055) was 2.9 fold, the “HLA-DMB (203932_at) fold change vs control” value (animal A60055) was 1.5 fold and the “HLA-DQA1 (212671_s_at) fold change vs control” value (animal A60055) was 8.2 fold. The “HLA-DQB1 (209823_x_at) fold change vs control” value (animal A60055) was 4.3 fold, the “HLA-DQB1 (211654_x_at) fold change vs control” value (animal A60055) was 7.7 fold and the “HLA-DQB1 (211656_x_at) fold change vs control” value (animal A60055) was 4.1 fold. The “HLA-DQB2 (212998_x_at) fold change vs control” value (animal A60055) was 10.8 fold, the “HLA-DRA (208894_at) fold change vs control” value (animal A60055) was 2.3 fold and the “HLA-DRA (210982_s_at) fold change vs control” value (animal A60055) was 2.1 fold. For the same molecule, the “HLA-DRB1 (215193_x_at) fold change vs control” value (animal A60055) was 2.9 fold, the “HLA-DRB3 (209312_x_at) fold change vs control” value (animal A60055) was 1.9 fold and the “HLA-DRB6 (217362_x_at) fold change vs control” value (animal A60055) was 2.2 fold. For the same molecule, the “HLA-E (200905_x_at) fold change vs control” value (animal A60055) was 1.6 fold, the “HLA-E (217456_x_at) fold change vs control” value (animal A60055) was 1.8 fold and the “HLA-F (204806_x_at) fold change vs control” value (animal A60055) was 2.1 fold. The “HLA-F (221875_x_at) fold change vs control” value (animal A60055) was 2.3 fold, the “ICAM1 (202638_s_at) fold change vs control” value (animal A60055) was 1.6 fold and the “ICAM1 (215485_s_at) fold change vs control” value (animal A60055) was 2.1 fold. For the same molecule, the “ICSBP1 (204057_at) fold change vs control” value (animal A60055) was 2.2 fold, the “IFI27 (202411_at) fold change vs control” value (animal A60055) was 20.8 fold and the “IFI30 (201422_at) fold change vs control” value (animal A60055) was 2.1 fold. For the same molecule, the “IFI44 (214453_s_at) fold change vs control” value (animal A60055) was 8.2 fold, the “IFIT1 (203153_at) fold change vs control” value (animal A60055) was 5.0 fold and the “IFIT2 (217502_at) fold change vs control” value (animal A60055) was 4.7 fold. For the same molecule, the “IFIT4 (204747_at) fold change vs control” value (animal A60055) was 1.6 fold, the “IFITM2 (201315_x_at) fold change vs control” value (animal A60055) was 1.9 fold and the “IFITM3 (212203_x_at) fold change vs control” value (animal A60055) was 1.6 fold. For the same molecule, the “IGF1 (209541_at) fold change vs control” value (animal A60055) was 1.8 fold, the “IGFBP4 (201508_at) fold change vs control” value (animal A60055) was 1.7 fold and the “IL1A (208200_at) fold change vs control” value (animal A60055) was 2.2 fold. The “IL2RG (204116_at) fold change vs control” value (animal A60055) was 2.4 fold, the “IL27RA (205926_at) fold change vs control” value (animal A60055) was 2.2 fold and the “INDO (210029_at) fold change vs control” value (animal A60055) was 6.5 fold. For the same molecule, the “INPP5D (203332_s_at) fold change vs control” value (animal A60055) was 1.7 fold, the “IRF1 (202531_at) fold change vs control” value (animal A60055) was 3.9 fold and the “IRF7 (208436_s_at) fold change vs control” value (animal A60055) was 3.4 fold. For the same molecule, the “ISGF3G (203882_at) fold change vs control” value (animal A60055) was 3.1 fold, the “ITGB2 (202803_s_at) fold change vs control” value (animal A60055) was 1.7 fold and the “JAK1 (214377_s_at) fold change vs control” value (animal A60055) was 2.1 fold. For the same molecule, the “KLKB1 (206541_at) fold change vs control” value (animal A60055) was 2.2 fold, the “LAIR1 (208071_s_at) fold change vs control” value (animal A60055) was 3.5 fold and the “LCK (204890_s_at) fold change vs control” value (animal A60055) was 2.2 fold. For the same molecule, the “LCP2 (205270_s_at) fold change vs control” value (animal A60055) was 1.7 fold, the “LILRB1 (207857_at) fold change vs control” value (animal A60055) was 2.1 fold and the “LILRB1 (211100_x_at) fold change vs control” value (animal A60055) was 1.8 fold. The “LILRB3 (208594_x_at) fold change vs control” value (animal A60055) was 1.7 fold, the “LILRB3 (210225_x_at) fold change vs control” value (animal A60055) was 2.5 fold and the “LRMP (204674_at) fold change vs control” value (animal A60055) was 2.6 fold. The “LY86 (205859_at) fold change vs control” value (animal A60055) was 1.8 fold, the “LY96 (206584_at) fold change vs control” value (animal A60055) was 1.8 fold and the “LYN (210754_s_at) fold change vs control” value (animal A60055) was 1.7 fold. The “MAF (209348_s_at) fold change vs control” value (animal A60055) was 1.7 fold, the “PCOLCE (202465_at) fold change vs control” value (animal A60055) was 2.2 fold and the “PLA2G4C (209785_s_at) fold change vs control” value (animal A60055) was 3.3 fold. The “PLCL2 (216217_at) fold change vs control” value (animal A60055) was 1.7 fold, the “PLSCR1 (202446_s_at) fold change vs control” value (animal A60055) was 2.1 fold and the “PRC1 (218009_s_at) fold change vs control” value (animal A60055) was 2.0 fold. The “PRG1 (201858_s_at) fold change vs control” value (animal A60055) was 1.8 fold, the “PRG1 (201859_at) fold change vs control” value (animal A60055) was 1.5 fold and the “PTPN22 (206060_s_at) fold change vs control” value (animal A60055) was 2.5 fold. For the same molecule, the “PTPRC (207238_s_at) fold change vs control” value (animal A60055) was 1.8 fold, the “SOCS3 (206360_s_at) fold change vs control” value (animal A60055) was 1.8 fold and the “STAT1 (209969_s_at) fold change vs control” value (animal A60055) was 13.5 fold. For the same molecule, the “STAT1 (AFFX-HUMISGF3A/M97935_5_at) fold change vs control” value (animal A60055) was 4.3 fold, the “STAT1 (AFFX-HUMISGF3A/M97935_MA_at) fold change vs control” value (animal A60055) was 5.3 fold and the “STAT1 (AFFX-HUMISGF3A/M97935_MB_at) fold change vs control” value (animal A60055) was 7.1 fold. For the same molecule, the “TAPBP (208829_at) fold change vs control” value (animal A60055) was 1.6 fold, the “TCTEL1 (201999_s_at) fold change vs control” value (animal A60055) was 1.7 fold and the “TLR1 (210176_at) fold change vs control” value (animal A60055) was 1.7 fold. The “TLR2 (204924_at) fold change vs control” value (animal A60055) was 1.7 fold, the “TNFAIP3 (202643_s_at) fold change vs control” value (animal A60055) was 2.0 fold and the “TNFAIP3 (202644_s_at) fold change vs control” value (animal A60055) was 2.3 fold. For the same molecule, the “TNFSF6 (210865_at) fold change vs control” value (animal A60055) was 1.9 fold, the “TNFSF10 (202687_s_at) fold change vs control” value (animal A60055) was 2.9 fold and the “TNFSF10 (202688_at) fold change vs control” value (animal A60055) was 2.8 fold. The “TRGC2 (211144_x_at) fold change vs control” value (animal A60055) was 2.0 fold, the “TRGC2 (216920_s_at) fold change vs control” value (animal A60055) was 2.4 fold and the “VCAM1 (203868_s_at) fold change vs control” value (animal A60055) was 4.1 fold. The “XCL1 (206366_x_at) fold change vs control” value (animal A60055) was 4.3 fold, the “XCL1 (214567_s_at) fold change vs control” value (animal A60055) was 5.4 fold and the “XLKD1 (219059_s_at) fold change vs control” value (animal A60055) was 1.8 fold. The “cig5 (213797_at) fold change vs control” value (animal A60055) was 7.1 fold, the “ACE (209749_s_at) mRNA expression, Avg fold changes vs control” value [1] was 0.9 fold and the “B2M (216231_s_at) mRNA expression, Avg fold changes vs control” value [1] was 1.2 fold.
